Experimental data as given in patent publication US12138291B2, “Hemostatic composition and hemostatic method using hemostatic composition” (3-D MATRIX, LTD., priority 2015, dated 2024).

Key:
[1] = Storage elastic modulus of peptide solutions before application (frequency sweep test); assay type: physicochemical; settings: shear stress 1 Pa
Description: Frequency sweep tests were conducted from 1 rad/sec to 10 rad/sec at a shear stress of 1 Pa, and the storage elastic modulus at 10 rad/sec was selected as data. As for a viscosity before gelling, tests were conducted for a soaking time of 2 min by loading each peptide solution between 20 mm plates with a gap distance of 500 um.

[2] = system: bleeding site of the porcine liver; experiment: Hemostasis of oozing bleeding created by abrading the porcine liver, usual application vs spray application; assay type: in vivo, pig; settings: for hemostasis outcome: peptide 1.5% (FIG. 9)
Text: Oozing bleeding was created by abrading the porcine liver using a metal file. A self-organizing peptide solution was applied to the bleeding by usual application or spray application and evaluated for its hemostatic effect and applied amount.
• Animal species: pig • Breed: LWD • Sex: female • The number of animals introduced: 2 • Age in days at the time of introduction: any Body weight at the time of introduction: 50 kg Institute receiving the animals: Narita experimental laboratory of NAS Laboratory Co., Ltd. • Distributor of the animals: Ishige Tikusan • Acclimatization period: approximately 7 days after introduction • Quarantine: the absence of abnormalities was confirmed by quarantine under clinical observation at the time of introduction and during the acclimatization period. • Individual discrimination: ear tag <Rearing Conditions> (1) Rearing environment
Atropine sulfate was intramuscularly administered at 0.05 mg/kg (dosing volume: 0.1 mL/kg) to each animal. Approximately 30 minutes later, 20 mg/kg (dosing volume: 0.4 mL/kg) of ketamine hydrochloride and 4 mg/kg (dosing volume: 0.2 mL/kg) of xylazine hydrochloride were mixed and intramuscularly administered thereto. Each anesthetic was introduced by the intramuscular administration to the ear root using a disposable syringe (Terumo Corp.) attached with an 18 G injection needle (Terumo Corp.). Then, a tracheal tube (TOP intratracheal tube, TOP Corp.) was intubated, and the anesthesia was maintained with isoflurane using an inhalation anesthesia apparatus SUBARU-KJ02 (Mikasa Kantou Syoukai Co., Ltd.) and a mechanical ventilator (COMPOS β-EV, Metran Co., Ltd.). The perioperative isoflurane concentration was set to 1 to 3%, and the amount of oxygen was set to 2 L/min. The intrapulmonary pressure of the mechanical ventilator was set to 15 cm H2O, and the respiratory rate was set to 15 times/min. Each animal was placed supine on an operating table and covered with a sterilized drape.
• 1. Each completely anesthetized pig was laparotomized by abdominal midline incision using a surgical knife and an electric surgical knife to expose the liver. • 2. Oozing bleeding was created by abrading the liver using a metal file. • 3. Each test substance was applied to the bleeding inclined plane by usual application (*1) or spray application (*2). • 4. The time from after the end of application to the end of assessment of the completion of hemostasis was measured using a stopwatch (*3). The amount of each test substance used until the end of the test was recorded. • *1: A syringe was packed with the peptide solution (test substance), and the peptide solution was pushed out of a nozzle at the tip of the syringe and thereby applied to the subject (see the syringe of FIG. 1). • 2: A syringe (equivalent to that of FIG. 1) packed with the peptide solution (test substance) was loaded in a spray gun, and compressed air was blown to a nozzle at the tip of the syringe using a compressor so that the peptide solution pushed out of the nozzle was sprayed to the subject. The spray pressure was generally 0.5 to 1.5 [kgf/cm2], though differing depending on the viscosity of each test substance, the status of bleeding, and the distance to the application site. • 3: If bleeding was not weakened after initial application (if it was judged that this condition would not lead to hemostasis), additional application was appropriately performed. The time of completion of initial application was defined as the start of measurement, and the time of completion of hemostasis assessment was defined as the end of measurement. <Results>

[3] = peptide concentrations of 1.5% or higher (1.5%, 2.0%, 2.5%)

| Sequence | Storage elastic modulus G′ (Pa) (mean: N = 3) ([1]; peptide 1.0% by weight, pH 3.0, at 10 rad/sec) | Storage elastic modulus G′ (Pa) (mean: N = 3) ([1]; peptide 1.5% by weight, pH 3.0, at 10 rad/sec) | amount of the solution applied until hemostasis, spray application group compared with usual application group ([2]; peptide concentration 1.0%) | hemostasis completion time, spray application group compared with usual application group ([2]; peptide concentration 1.0%) | amount of the solution applied until hemostasis, spray application group compared with usual application group ([2]; peptide concentration 1.5%) | hemostasis completion time, spray application group compared with usual application group ([2]; peptide concentration 1.5%) | Storage elastic modulus G′ (Pa) (mean: N = 3) ([1]; peptide 1.0% by weight, pH no treatment, at 10 rad/sec) | Storage elastic modulus G′ (Pa) (mean: N = 3) ([1]; peptide 1.5% by weight, pH no treatment, at 10 rad/sec) | Storage elastic modulus G′ (Pa) (mean: N = 3) ([1]; peptide 2.0% by weight, pH no treatment, at 10 rad/sec) | Storage elastic modulus G′ (Pa) (mean: N = 3) ([1]; peptide 2.5% by weight, pH no treatment, at 10 rad/sec) | amount of the solution applied until hemostasis, spray application group compared with usual application group [2, 3] | hemostasis completion time, spray application group compared with usual application group [2, 3] | Storage elastic modulus G′ (Pa) (mean: N = 3) ([1]; peptide 1.0% by weight, pH 7.5, at 10 rad/sec) | Storage elastic modulus G′ (Pa) (mean: N = 3) ([1]; peptide 1.5% by weight, pH 7.5, at 10 rad/sec) | Storage elastic modulus G′ (Pa) (mean: N = 3) ([1]; peptide 2.0% by weight, pH 7.5, at 10 rad/sec) | hemostasis outcome ([2]; spray application) | hemostasis outcome ([2]; usual application) |
| --- | --- | --- | --- | --- | --- | --- | --- | --- | --- | --- | --- | --- | --- | --- | --- | --- | --- |
| IEIKIEIKIEIKI [Peptide No. 2] | 349.0 | 2,309 Pa | no significant difference | no significant difference | smaller amount of the solution applied until hemostasis | evidently resulted in a shorter hemostasis completion time |  |  |  |  |  |  |  |  |  |  |  |
| RADARADARADARADA [Peptide No. 1] |  |  | smaller amount of the solution applied until hemostasis | tendencies of a shorter hemostasis completion time |  |  | 30 | 75 | 141 | 503 | smaller amount of the solution applied until hemostasis | evidently resulted in a shorter hemostasis completion time |  |  |  |  |  |
| RLDLRLALRLDLR (Ac-RLDLRLALRLDLR-NH2) [Peptide No. 3, self-assembling peptide, solution in purified water] |  |  |  |  |  |  |  |  |  |  |  |  | 75 | 239 | 439 | succeeded in hemostasis | failed in hemostasis |
